Key:
Assay type in all cases: in vivo
[1] = test system: Alopecurus myosuroides (ALOMY); assay: Comparative testing, glasshouse herbicide test, spray one day after sowing
Experimental: (§1) Seeds of a variety of test species are sown in standard soil in pots. After cultivation for one day under controlled conditions in a glasshouse (at 24/16° C., day/night; 14 hours light; 65% humidity), an aqueous spray solution derived from the formulation of the technical active ingredient in 0.6 ml acetone and 45 ml formulation solution containing 10.6% Emulsogen EL (Registry number 61791-12-6), 42.2% N-methyl pyrrolidone, 42.2% dipropylene glycol monomethyl ether (CAS RN 34590-94-8) and 0.2% X-77 (CAS RN 11097-66-8) is applied.
(§2) The test plants are then grown in a glasshouse under controlled conditions in a glasshouse (at 24/16° C., day/night; 14 hours light; 65% humidity) and watered twice daily. After 21 days, the test is evaluated (100=total damage to plant; 0=no damage to plant). Test plants (weed species) include: Alopecurus myosuroides (ALOMY), Bidens pilosa (BIDPI), Euphorbia heterophylla (EPHHL), Lolium perenne (LOLPE), Panicum milaceum (PANMI), Sida spinosa (SIDSP) and Stellaria media STEME).

Bidens pilosa (BIDPI) = assay: as above
Experimental: as §1, §2

[2] = test system: Euphorbia heterophylla (EPHHL); assay: as above
Experimental: as §1, §2

Lolium perenne (LOLPE) [3] = assay: as above
Experimental: as §1, §2

Panicum milaceum (PANMI) = assay: as above
Experimental: as §1, §2

Sida spinosa (SIDSP) = assay: as above
Experimental: as §1, §2

Stellaria media (STEME) = assay: as above
Experimental: as §1, §2

[4] = test system: Amaranthus retoflexus (AMARE); assay: Further testing, post-emergence application; conditions: 1000 g/h, after 13 days
Experimental: (§3) Seeds of a variety of test species are sown in standard soil in pots (Lolium perenne (LOLPE), Solanum nigrum (SOLNI), Amaranthus retoflexus (AMARE), Setaria faberi (SETFA), Echinochloa crus-galli (ECHCG), Ipomoea hederacea (IPOHE)). After cultivation for one day (pre-emergence) or after 8 days cultivation (post-emergence) under controlled conditions in a glasshouse (at 24/16° C., day/night; 14 hours light; 65% humidity), the plants are sprayed with an aqueous spray solution derived from the formulation of the technical active ingredient in acetone/water (50:50) solution containing 0.5% Tween 20 (polyoxyethelyene sorbitan monolaurate, CAS RN 9005-64-5). Compounds are applied at 1000 g/h unless otherwise stated. The test plants are then grown in a glasshouse under controlled conditions in a glasshouse (at 24/16° C., day/night; 14 hours light; 65% humidity) and watered twice daily. After 13 days for pre and post-emergence, the test is evaluated for the percentage damage caused to the plant. The biological activities are shown in the following table on a five point scale (5=80-100%; 4=60-79%; 3=40-59%; 2=20-39%; 1=0-19%).

[5] = test system: Echinochloa crus-galli (ECHCG); assay: Further testing, post-emergence application; conditions: 1000 g/h, after 13 days
Experimental: as §3

[6] = test system: Ipomoea hederacea (IPOHE); assay: Further testing, post-emergence application; conditions: 1000 g/h, after 13 days
Experimental: as §3

Lolium perenne (LOLPE) [7] = assay: Further testing, post-emergence application; conditions: 1000 g/h, after 13 days
Experimental: as §3

Setaria faberi (SETFA) [8] = assay: Further testing, post-emergence application; conditions: 1000 g/h, after 13 days
Experimental: as §3

Solanum nigrum (SOLNI) [9] = assay: Further testing, post-emergence application; conditions: 1000 g/h, after 13 days
Experimental: as §3

[10] = test system: Amaranthus retoflexus (AMARE); assay: Further testing, pre-emergence application; conditions: 1000 g/h, after 13 days
Experimental: as §3

[11] = test system: Echinochloa crus-galli (ECHCG); assay: Further testing, pre-emergence application; conditions: 1000 g/h, after 13 days
Experimental: as §3

[12] = test system: Ipomoea hederacea (IPOHE); assay: Further testing, pre-emergence application; conditions: 1000 g/h, after 13 days
Experimental: as §3

Lolium perenne (LOLPE) [13] = assay: Further testing, pre-emergence application; conditions: 1000 g/h, after 13 days
Experimental: as §3

Setaria faberi (SETFA) [14] = assay: Further testing, pre-emergence application; conditions: 1000 g/h, after 13 days
Experimental: as §3

Solanum nigrum (SOLNI) [15] = assay: Further testing, pre-emergence application; conditions: 1000 g/h, after 13 days
Experimental: as §3

[16] = Rate 125, evaluated after 21 days
[17] = Rate 250, evaluated after 21 days

SMILES | damage to plant (100=total damage to plant; 0=no damage to plant) [1, 16] | damage to plant (100=total damage to plant; 0=no damage to plant) [1, 17] | damage to plant (100=total damage to plant; 0=no damage to plant) (Bidens pilosa (BIDPI); [16]) | damage to plant (100=total damage to plant; 0=no damage to plant) (Bidens pilosa (BIDPI); [17]) | damage to plant (100=total damage to plant; 0=no damage to plant) [2, 16] | damage to plant (100=total damage to plant; 0=no damage to plant) [2, 17] | damage to plant (100=total damage to plant; 0=no damage to plant) (Lolium perenne (LOLPE) [3]; [16]) | damage to plant (100=total damage to plant; 0=no damage to plant) (Lolium perenne (LOLPE) [3]; [17]) | percentage damage caused to the plant, five point scale [4] | percentage damage caused to the plant, five point scale [5] | percentage damage caused to the plant, five point scale [6] | percentage damage caused to the plant, five point scale (Lolium perenne (LOLPE) [7]) | percentage damage caused to the plant, five point scale (Setaria faberi (SETFA) [8]) | percentage damage caused to the plant, five point scale (Solanum nigrum (SOLNI) [9]) | percentage damage caused to the plant, five point scale [10] | percentage damage caused to the plant, five point scale [11] | percentage damage caused to the plant, five point scale [12] | percentage damage caused to the plant, five point scale (Lolium perenne (LOLPE) [13]) | percentage damage caused to the plant, five point scale (Setaria faberi (SETFA) [14]) | percentage damage caused to the plant, five point scale (Solanum nigrum (SOLNI) [15]) | further results
Cn1nnnc1NC(=O)c1nn(C)c(=O)c(C2CCCCC2)c1Cl [Compound 1.001] | 40 | 40 | 100 | 100 | 90 | 90 | 60 | 60 | 5 (5=80-100%) | 5 (5=80-100%) | 5 (5=80-100%) | 5 (5=80-100%) | 5 (5=80-100%) | 5 (5=80-100%) | 5 (5=80-100%) | 5 (5=80-100%) | 5 (5=80-100%) | 5 (5=80-100%) | 5 (5=80-100%) | 5 (5=80-100%) | damage to plant (100=total damage to plant; 0=no damage to plant) (Panicum milaceum (PANMI); [16]): 80; damage to plant (100=total damage to plant; 0=no damage to plant) (Panicum milaceum (PANMI); [17]): 80; damage to plant (100=total damage to plant; 0=no damage to plant) (Sida spinosa (SIDSP); [16]): 90; damage to plant (100=total damage to plant; 0=no damage to plant) (Sida spinosa (SIDSP); [17]): 90; damage to plant (100=total damage to plant; 0=no damage to plant) (Stellaria media (STEME); [16]): 100; damage to plant (100=total damage to plant; 0=no damage to plant) (Stellaria media (STEME); [17]): 100
Cn1nc(C(=O)C2C(=O)CCCC2=O)c(Cl)c(C2CCCCC2)c1=O [Compound A, 2-(4-chloro-5-cyclohexyl-1-methyl-6-oxo-pyridazine-3-carbonyl)cyclohexane-1,3-dione, reference compound] | 0 | 20 | 0 | 40 | 0 | 20 | 10 | 20 |  |  |  |  |  |  |  |  |  |  |  |  | damage to plant (100=total damage to plant; 0=no damage to plant) (Panicum milaceum (PANMI); [16]): 0; damage to plant (100=total damage to plant; 0=no damage to plant) (Panicum milaceum (PANMI); [17]): 0; damage to plant (100=total damage to plant; 0=no damage to plant) (Sida spinosa (SIDSP); [16]): 0; damage to plant (100=total damage to plant; 0=no damage to plant) (Sida spinosa (SIDSP); [17]): 0; damage to plant (100=total damage to plant; 0=no damage to plant) (Stellaria media (STEME); [16]): 50; damage to plant (100=total damage to plant; 0=no damage to plant) (Stellaria media (STEME); [17]): 60
Cn1nnnc1NC(=O)c1nn(C)c(=O)c(C2CCCCC2)c1Cl [Compound 1.030] |  |  |  |  |  |  |  |  | 5 (5=80-100%) | 5 (5=80-100%) | 4 (4=60-79%) | 5 (5=80-100%) | 5 (5=80-100%) | 5 (5=80-100%) | 5 (5=80-100%) | 5 (5=80-100%) | 2 (2=20-39%) | 5 (5=80-100%) | 5 (5=80-100%) | 5 (5=80-100%) | 
Cn1nnnc1NC(=O)c1nn(C)c(=O)c(C2CCCC2)c1Cl [Compound 1.005] |  |  |  |  |  |  |  |  | 5 (5=80-100%) | 5 (5=80-100%) | 5 (5=80-100%) | 5 (5=80-100%) | 5 (5=80-100%) | 5 (5=80-100%) | 5 (5=80-100%) | 5 (5=80-100%) | 5 (5=80-100%) | 5 (5=80-100%) | 5 (5=80-100%) | 5 (5=80-100%) | 
Cn1nnnc1NC(=O)c1nn(C)c(=O)c(C2CCCCC2)c1Cl [Compound 1.031] |  |  |  |  |  |  |  |  | 5 (5=80-100%) | 4 (4=60-79%) | 4 (4=60-79%) | 4 (4=60-79%) | 5 (5=80-100%) | 5 (5=80-100%) | 5 (5=80-100%) | 5 (5=80-100%) | 4 (4=60-79%) | 3 (3=40-59%) | 4 (4=60-79%) | 5 (5=80-100%) | 

Source: patent US10512268B2, “Herbicidal compounds” (Syngenta Participations AG, priority 2015, dated 2019)
